13 compounds from patent US20260242419A1, “A CYCLIC PEPTIDE FOR TRAPPING INTERLEUKIN-1 BETA” (Merck Sharp & Dohme LLC, priority 2023, published 2026) can be followed below.

What is called IC50 is the concentration needed to halve the response being measured.

Non-standard residues stand in square brackets, D forms with d. Residues, ends and D or L forms follow the SMILES beside them. dPro(4R-(4-pyridylmethyl)) = O=C(O)[C@H]1C[C@@H](Cc2ccncc2)CN1; Trp(βS-Me,4-F) = C[C@@H](c1c[nH]c2cccc(F)c12)[C@H](N)C(=O)O; Bip(4'-COOH) = N[C@@H](Cc1ccc(-c2ccc(C(=O)O)cc2)cc1)C(=O)O; Trp(4-Cl) = N[C@@H](Cc1c[nH]c2cccc(Cl)c12)C(=O)O; Ala(pyrimidin-5-yl) = N[C@@H](Cc1cncnc1)C(=O)O; Phe(4-COOH) = N[C@@H](Cc1ccc(C(=O)O)cc1)C(=O)O; Trp(4-F) = N[C@@H](Cc1c[nH]c2cccc(F)c12)C(=O)O; Bip = N[C@@H](Cc1ccc(-c2ccccc2)cc1)C(=O)O; Pro(cis-4-F) = O=C(O)[C@@H]1C[C@H](F)CN1; Dap(CONH2) = NC(=O)NC[C@H](N)C(=O)O; d(αMeD) = C[C@@](N)(CC(=O)O)C(=O)O; 4Pal = N[C@@H](Cc1ccncc1)C(=O)O; aThr = C[C@H](O)[C@H](N)C(=O)O; dOrn = NCCC[C@@H](N)C(=O)O; dDab = NCC[C@@H](N)C(=O)O; dDap = NC[C@@H](N)C(=O)O; Dab = NCC[C@H](N)C(=O)O; Nva = CCC[C@H](N)C(=O)O; Aib = CC(C)(N)C(=O)O

T1 sequence (P01584 117-269): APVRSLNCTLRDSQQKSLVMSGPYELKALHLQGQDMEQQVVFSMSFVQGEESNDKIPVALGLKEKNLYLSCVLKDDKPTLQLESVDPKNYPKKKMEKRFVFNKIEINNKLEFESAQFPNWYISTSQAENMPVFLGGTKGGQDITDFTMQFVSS

This test addresses T1, IL-1β (Homo sapiens, UniProt P01584).
T1 construct: purchased BioLegend 579404
Description: IL-6 assay in MRC5 cells: inhibition of IL-1β induced IL-6 secretion (AlphaLISA). Particulars: inhibition of IL-1β induced IL-6 secretion in MRC5 cells; compound pre-incubated 1 hour with recombinant human IL-1β; read-out: MRC5 IC50. Type of test: cell-based. Put shortly:
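Compound was pre-incubated 1 h at ambient temperature with recombinant human IL-1β at 2λ EC80 before adding human lung fibroblast MRC5 cells (3000/well) in EMEM with 0.025% BSA. After overnight culture at 37 °C, 5% CO2, secreted IL-6 in conditioned medium was measured by AlphaLISA; IC50 from 4-parameter logistic fits.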
(Bead proximity is the source of the signal in Alpha formats.)
As to `C[C@@H](c1c[nH]c2cccc(F)c12)[C@@H]1NC(=O)[C@@H]2C[C@H](F)CN2C(=O)CNC(=O)[C@H](Cc2ccc(C(=O)O)cc2)NC(=O)[C@H](Cc2ccncc2)NC(=O)[C@H](Cc2ccc(-c3ccc(C(=O)O)cc3)cc2)NC(=O)[C@H]2C[C@@H](Cc3ccncc3)CN2C(=O)CNC(=O)[C@H](CCN)NC(=O)[C@H](CCC(N)=O)NC(=O)[C@@H](CO)NC(=O)[C@@](C)(CC(=O)O)NC(=O)[C@H](Cc2c[nH]c3ccccc23)NC(=O)[C@H](CO)NC(=O)C(C)(C)NC1=O` [Example 242] (cyclo([Bip(4'-COOH)][4Pal][Phe(4-COOH)]G[Pro(cis-4-F)][Trp(βS-Me,4-F)][Aib]SW[d(αMeD)][dS]Q[Dab]G[dPro(4R-(4-pyridylmethyl))])), the 50% inhibitory concentration (IC50) was found to be 0.019 nM.

In the case of `C[C@@H](c1c[nH]c2cccc(F)c12)[C@@H]1NC(=O)[C@@H]2C[C@H](F)CN2C(=O)CNC(=O)[C@H](Cc2ccc(C(=O)O)cc2)NC(=O)[C@H](Cc2ccncc2)NC(=O)[C@H](Cc2ccc(-c3ccc(C(=O)O)cc3)cc2)NC(=O)[C@H]2C[C@@H](Cc3ccncc3)CN2C(=O)CNC(=O)[C@H](CCN)NC(=O)[C@H](CCC(N)=O)NC(=O)[C@@H](Cc2ccccc2)NC(=O)[C@@](C)(CC(=O)O)NC(=O)[C@H](Cc2c[nH]c3ccccc23)NC(=O)[C@H](CO)NC(=O)C(C)(C)NC1=O` [Example 243] (cyclo([Bip(4'-COOH)][4Pal][Phe(4-COOH)]G[Pro(cis-4-F)][Trp(βS-Me,4-F)][Aib]SW[d(αMeD)][dF]Q[Dab]G[dPro(4R-(4-pyridylmethyl))])), the IC50 is 0.022 nM.

As for `C[C@@H](c1c[nH]c2cccc(F)c12)[C@@H]1NC(=O)[C@@H]2C[C@H](F)CN2C(=O)CNC(=O)[C@H](Cc2ccc(C(=O)O)cc2)NC(=O)[C@H](Cc2ccncc2)NC(=O)[C@H](Cc2ccc(-c3ccccc3)cc2)NC(=O)[C@H]2C[C@@H](Cc3ccncc3)CN2C(=O)CNC(=O)[C@H](CNC(N)=O)NC(=O)[C@H](CCC(N)=O)NC(=O)[C@@H](CCCCN)NC(=O)[C@@](C)(CC(=O)O)NC(=O)[C@H](Cc2c[nH]c3ccccc23)NC(=O)[C@H](CO)NC(=O)C(C)(C)NC1=O` [Example 244] (cyclo([Bip][4Pal][Phe(4-COOH)]G[Pro(cis-4-F)][Trp(βS-Me,4-F)][Aib]SW[d(αMeD)][dK]Q[Dap(CONH2)]G[dPro(4R-(4-pyridylmethyl))])), the IC50 came out at 0.03 nM.

With `C[C@@H](c1c[nH]c2cccc(F)c12)[C@@H]1NC(=O)[C@@H]2C[C@H](F)CN2C(=O)CNC(=O)[C@H](Cc2ccc(C(=O)O)cc2)NC(=O)[C@H](Cc2ccncc2)NC(=O)[C@H](Cc2ccc(-c3ccccc3)cc2)NC(=O)[C@H]2C[C@@H](Cc3ccncc3)CN2C(=O)CNC(=O)[C@H](CNC(N)=O)NC(=O)[C@H](CCC(N)=O)NC(=O)[C@@H](CCCN)NC(=O)[C@@](C)(CC(=O)O)NC(=O)[C@H](Cc2c[nH]c3ccccc23)NC(=O)[C@H](CO)NC(=O)C(C)(C)NC1=O` [Example 245] (cyclo([Bip][4Pal][Phe(4-COOH)]G[Pro(cis-4-F)][Trp(βS-Me,4-F)][Aib]SW[d(αMeD)][dOrn]Q[Dap(CONH2)]G[dPro(4R-(4-pyridylmethyl))])), the IC50 worked out at 0.027 nM.

For the compound `C[C@@H](c1c[nH]c2cccc(F)c12)[C@@H]1NC(=O)[C@@H]2C[C@H](F)CN2C(=O)CNC(=O)[C@H](Cc2ccc(C(=O)O)cc2)NC(=O)[C@H](Cc2ccncc2)NC(=O)[C@H](Cc2ccc(-c3ccccc3)cc2)NC(=O)[C@H]2C[C@@H](Cc3ccncc3)CN2C(=O)CNC(=O)[C@H](CNC(N)=O)NC(=O)[C@H](CCC(N)=O)NC(=O)[C@@H](CN)NC(=O)[C@@](C)(CC(=O)O)NC(=O)[C@H](Cc2c[nH]c3ccccc23)NC(=O)[C@H](CO)NC(=O)C(C)(C)NC1=O` [Example 246] (cyclo([Bip][4Pal][Phe(4-COOH)]G[Pro(cis-4-F)][Trp(βS-Me,4-F)][Aib]SW[d(αMeD)][dDap]Q[Dap(CONH2)]G[dPro(4R-(4-pyridylmethyl))])), the IC50 turned out to be 0.031 nM.

Regarding `C[C@@H](c1c[nH]c2cccc(F)c12)[C@@H]1NC(=O)[C@@H]2C[C@H](F)CN2C(=O)CNC(=O)[C@H](Cc2ccc(C(=O)O)cc2)NC(=O)[C@H](Cc2ccncc2)NC(=O)[C@H](Cc2ccc(-c3ccccc3)cc2)NC(=O)[C@H]2C[C@@H](Cc3ccncc3)CN2C(=O)CNC(=O)[C@H](CNC(N)=O)NC(=O)[C@H](CCC(N)=O)NC(=O)[C@@H](CCN)NC(=O)[C@@](C)(CC(=O)O)NC(=O)[C@H](Cc2c[nH]c3ccccc23)NC(=O)[C@H](CO)NC(=O)C(C)(C)NC1=O` [Example 247] (cyclo([Bip][4Pal][Phe(4-COOH)]G[Pro(cis-4-F)][Trp(βS-Me,4-F)][Aib]SW[d(αMeD)][dDab]Q[Dap(CONH2)]G[dPro(4R-(4-pyridylmethyl))])), the IC50 was determined as 0.03 nM.

`C[C@@H](c1c[nH]c2cccc(F)c12)[C@@H]1NC(=O)[C@@H]2C[C@H](F)CN2C(=O)CNC(=O)[C@H](Cc2ccc(C(=O)O)cc2)NC(=O)[C@H](Cc2ccncc2)NC(=O)[C@H](Cc2ccc(-c3ccccc3)cc2)NC(=O)[C@H]2C[C@@H](Cc3ccncc3)CN2C(=O)CNC(=O)[C@H](CCN)NC(=O)[C@H](CCC(N)=O)NC(=O)[C@@H](CCN)NC(=O)[C@@](C)(CC(=O)O)NC(=O)[C@H](Cc2c[nH]c3ccccc23)NC(=O)[C@H](CO)NC(=O)C(C)(C)NC1=O` [Example 248] (cyclo([Bip][4Pal][Phe(4-COOH)]G[Pro(cis-4-F)][Trp(βS-Me,4-F)][Aib]SW[d(αMeD)][dDab]Q[Dab]G[dPro(4R-(4-pyridylmethyl))])): the half-inhibitory concentration (IC50) turned out to be 0.028 nM.

Regarding `C[C@@H](c1c[nH]c2cccc(F)c12)[C@@H]1NC(=O)[C@@H]2C[C@H](F)CN2C(=O)CNC(=O)[C@H](Cc2ccc(C(=O)O)cc2)NC(=O)[C@H](Cc2ccncc2)NC(=O)[C@H](Cc2ccc(-c3ccccc3)cc2)NC(=O)[C@H]2C[C@@H](Cc3ccncc3)CN2C(=O)CNC(=O)[C@H](CCN)NC(=O)[C@H](CCC(N)=O)NC(=O)[C@@H](CCC(=O)O)NC(=O)[C@@](C)(CC(=O)O)NC(=O)[C@H](Cc2c[nH]c3ccccc23)NC(=O)[C@H](CO)NC(=O)C(C)(C)NC1=O` [Example 249] (cyclo([Bip][4Pal][Phe(4-COOH)]G[Pro(cis-4-F)][Trp(βS-Me,4-F)][Aib]SW[d(αMeD)][dE]Q[Dab]G[dPro(4R-(4-pyridylmethyl))])), the 50% inhibitory concentration (IC50) is 0.016 nM.

As to `C[C@@H](c1c[nH]c2cccc(F)c12)[C@@H]1NC(=O)[C@@H]2C[C@H](F)CN2C(=O)CNC(=O)[C@H](Cc2ccc(C(=O)O)cc2)NC(=O)[C@H](Cc2ccncc2)NC(=O)[C@H](Cc2ccc(-c3ccccc3)cc2)NC(=O)[C@H]2C[C@@H](Cc3ccncc3)CN2C(=O)CNC(=O)[C@H](CCN)NC(=O)[C@H](CCC(N)=O)NC(=O)[C@@H](CCC(=O)O)NC(=O)C(C)(C)NC(=O)[C@H](Cc2c[nH]c3ccccc23)NC(=O)[C@H](CO)NC(=O)C(C)(C)NC1=O` [Example 250] (cyclo([Bip][4Pal][Phe(4-COOH)]G[Pro(cis-4-F)][Trp(βS-Me,4-F)][Aib]SW[Aib][dE]Q[Dab]G[dPro(4R-(4-pyridylmethyl))])), the IC50 was 0.027 nM.

`C[C@@H](c1c[nH]c2cccc(F)c12)[C@@H]1NC(=O)[C@@H]2C[C@H](F)CN2C(=O)CNC(=O)[C@H](Cc2ccc(C(=O)O)cc2)NC(=O)[C@H](Cc2ccncc2)NC(=O)[C@H](Cc2ccc(-c3ccc(C(=O)O)cc3)cc2)NC(=O)[C@H]2C[C@@H](Cc3ccncc3)CN2C(=O)CNC(=O)[C@H](CCN)NC(=O)[C@H](CCC(N)=O)NC(=O)[C@H](Cc2cncnc2)NC(=O)[C@@](C)(CC(=O)O)NC(=O)[C@H](Cc2c[nH]c3cccc(Cl)c23)NC(=O)[C@H](CO)NC(=O)C(C)(C)NC1=O` [Example 251] (cyclo([Bip(4'-COOH)][4Pal][Phe(4-COOH)]G[Pro(cis-4-F)][Trp(βS-Me,4-F)][Aib]S[Trp(4-Cl)][d(αMeD)][Ala(pyrimidin-5-yl)]Q[Dab]G[dPro(4R-(4-pyridylmethyl))])): the half-maximal inhibitory concentration (IC50) was 0.013 nM.

With `C[C@@H](c1c[nH]c2cccc(F)c12)[C@@H]1NC(=O)[C@@H]2C[C@H](F)CN2C(=O)CNC(=O)[C@H](Cc2ccc(C(=O)O)cc2)NC(=O)[C@H](Cc2ccncc2)NC(=O)[C@H](Cc2ccc(-c3ccc(C(=O)O)cc3)cc2)NC(=O)[C@H]2C[C@@H](Cc3ccncc3)CN2C(=O)CNC(=O)[C@H](CCN)NC(=O)[C@H](CCC(N)=O)NC(=O)[C@H](Cc2cncnc2)NC(=O)[C@@](C)(CC(=O)O)NC(=O)[C@H](Cc2c[nH]c3cccc(F)c23)NC(=O)[C@H](CO)NC(=O)C(C)(C)NC1=O` [Example 252] (cyclo([Bip(4'-COOH)][4Pal][Phe(4-COOH)]G[Pro(cis-4-F)][Trp(βS-Me,4-F)][Aib]S[Trp(4-F)][d(αMeD)][Ala(pyrimidin-5-yl)]Q[Dab]G[dPro(4R-(4-pyridylmethyl))])), the IC50 is 0.013 nM.

Turning to `CCC[C@@H]1NC(=O)[C@@](C)(CC(=O)O)NC(=O)[C@H](Cc2c[nH]c3ccccc23)NC(=O)[C@H](CO)NC(=O)C(C)(C)NC(=O)[C@H]([C@@H](C)c2c[nH]c3cccc(F)c23)NC(=O)[C@@H]2C[C@H](F)CN2C(=O)CNC(=O)[C@H](Cc2ccc(C(=O)O)cc2)NC(=O)[C@H](Cc2ccncc2)NC(=O)[C@H](Cc2ccc(-c3ccc(C(=O)O)cc3)cc2)NC(=O)[C@H]2C[C@@H](Cc3ccncc3)CN2C(=O)CNC(=O)[C@H](CCN)NC(=O)[C@H](CCC(N)=O)NC1=O` [Example 253] (cyclo([Bip(4'-COOH)][4Pal][Phe(4-COOH)]G[Pro(cis-4-F)][Trp(βS-Me,4-F)][Aib]SW[d(αMeD)][Nva]Q[Dab]G[dPro(4R-(4-pyridylmethyl))])), the IC50 worked out at 0.013 nM.

On to `CO[C@@H](C)[C@@H]1NC(=O)[C@@](C)(CC(=O)O)NC(=O)[C@H](Cc2c[nH]c3ccccc23)NC(=O)[C@H](CO)NC(=O)C(C)(C)NC(=O)[C@H]([C@@H](C)c2c[nH]c3cccc(F)c23)NC(=O)[C@@H]2C[C@H](F)CN2C(=O)CNC(=O)[C@H](Cc2ccc(C(=O)O)cc2)NC(=O)[C@H](Cc2ccncc2)NC(=O)[C@H](Cc2ccc(-c3ccc(C(=O)O)cc3)cc2)NC(=O)[C@H]2C[C@@H](Cc3ccncc3)CN2C(=O)CNC(=O)[C@H](CCN)NC(=O)[C@H](CCC(N)=O)NC1=O` [Example 254] (cyclo([Bip(4'-COOH)][4Pal][Phe(4-COOH)]G[Pro(cis-4-F)][Trp(βS-Me,4-F)][Aib]SW[d(αMeD)][aThr](Me)Q[Dab]G[dPro(4R-(4-pyridylmethyl))])), for which the concentration for half-maximal inhibition (IC50) worked out at 0.013 nM.
